Values quoted from earlier work in US20230067402A1, “IS[…] T[…] ANALOGS THEREOF” (Biomind Labs Inc, priority 2021, published 2023).

Conditions: intramuscular administration

## CN(C)CCc1c[nH]c2ccccc12 [DMT, N,N-dimethyltryptamine]
  time to peak concentration in the blood: 10 to 15 min
After one hour
  blood level after one hour: undetectable levels
